Laboratory results taken from patent US10118935B2, “Melampomagnolide B dimers” (priority 2014, dated 2018).

How the values were obtained:
[1] = test system: M9ENL AML cell lines; details: read-out: LC50; M9ENL AML cell lines; after 24 hours of drug exposure
[2] = test system: CCRF-CEM; experiment: NCI 60 cell line five dose, Leukemia
[3] = test system: SNB-75; experiment: NCI 60 cell line five dose, CNS Cancer
[4] = test system: ACHN; experiment: NCI 60 cell line five dose, Renal Cancer
[5] = test system: UACC-257; experiment: NCI 60 cell line five dose, Melanoma
[6] = test system: A498; experiment: NCI 60 cell line five dose, Renal Cancer
[7] = test system: HT29; experiment: NCI 60 cell line five dose, Colon Cancer
[8] = test system: panel of 60 human cancer cell lines; experiment: Five-dose growth inhibition, panel; type: cell-based
[9] = test system: NCI-H226; experiment: NCI 60 cell line five dose, Non-Small Cell Lung Cancer
[10] = test system: HS 578T; experiment: NCI 60 cell line five dose, Breast Cancer; details: HS 578T
[11] = test system: NCI-H460; experiment: NCI 60 cell line five dose, Non-Small Cell Lung Cancer
[12] = test system: NCI-H322M
[13] = test system: SK-MEL-2; experiment: NCI 60 cell line five dose, Melanoma
[14] = test system: T-47D; experiment: NCI 60 cell line five dose, Breast Cancer
[15] = test system: PC-3; experiment: NCI 60 cell line five dose, Prostate Cancer
[16] = test system: LOX IMVI; experiment: NCI 60 cell line five dose, Melanoma
[17] = test system: MCF7; experiment: NCI 60 cell line five dose, Breast Cancer
[18] = test system: SR; experiment: NCI 60 cell line five dose, Leukemia
[19] = test system: SK-MEL-5; experiment: NCI 60 cell line five dose, Melanoma; details: SK-MEL-5
[20] = test system: MOLT-4; experiment: NCI 60 cell line five dose, Leukemia
[21] = test system: MDA-MB-435; experiment: NCI 60 cell line five dose, Melanoma
[22] = test system: A549/ATCC; experiment: NCI 60 cell line five dose, Non-Small Cell Lung Cancer
[23] = test system: CAKI-1; experiment: NCI 60 cell line five dose, Renal Cancer
[24] = test system: OVCAR-4; experiment: NCI 60 cell line five dose, Ovarian Cancer

Q: `C=C1C(=O)O[C@H]2[C@H]1CC/C(COC(=O)NCCCCCNC(=O)OC/C1=C/CC[C@@]3(C)O[C@H]3[C@H]3OC(=O)C(=C)[C@@H]3CC1)=C\CC[C@@]1(C)O[C@@H]21` [JVM 2-76, bis(((1aR,7aS,10aS,10bS,E)-1a-Methyl-8-methylene-9-oxo-1a,2,3,6,7,7a,8,9,10a,10b-decahydrooxireno[2′,3′:9,10]cyclodeca[1,2-b]furan-5-yl)methyl)pentane-1,5-diyldicarbamate] was tested. Which CC50 [1] did it give?
A: 1.35 µM

Q: And the GI50 [2]?
A: 0.28 µM

Q: What about the TGI [2] of the same compound?
A: 0.96 µM

Q: What about the CC50 ([2]; read-out: LC50) of the same compound?
A: > 100 µM

Q: And the GI50 [3]?
A: 2.2 µM

Q: And the TGI [3]?
A: 11.4 µM

Q: What about the CC50 ([3]; read-out: LC50) of the same compound?
A: 33.8 µM

Q: What about the GI50 [4] of the same compound?
A: 3.05 µM

Q: What about the TGI [4] of the same compound?
A: 9.84 µM

Q: And the CC50 ([4]; read-out: LC50)?
A: 35.4 µM

Q: What about the GI50 [5] of the same compound?
A: 2.07 µM

Q: What about the TGI [5] of the same compound?
A: 7.46 µM

Q: What about the CC50 ([5]; read-out: LC50) of the same compound?
A: 42.4 µM

Q: What about the GI50 [6] of the same compound?
A: 6.24 µM

Q: What about the TGI [6] of the same compound?
A: 19.4 µM

Q: And the CC50 ([6]; read-out: LC50)?
A: 47.5 µM

Q: What about the GI50 [7] of the same compound?
A: 0.51 µM

Q: What about the TGI [7] of the same compound?
A: 1.78 µM

Q: And the CC50 ([7]; read-out: LC50)?
A: 4.85 µM

Q: And the “growth inhibition (GI50)” value ([8]; CCRF-CEM, HL-60 (TB), K-562, RPMI-8226, SR, NCI-H522, COLO 205, HCT-116, HT29, SW-620, LOX IMVI, OVCAR-3, RXF 393, MCF7)?
A: nano-molar range

Q: What about the GI50 values ([8]; remaining human cancer cell lines) of the same compound?
A: low micromolar range

Q: What about the GI50 [9] of the same compound?
A: 2.56 µM

Q: And the TGI [9]?
A: 8.18 µM

Q: What about the CC50 ([9]; read-out: LC50) of the same compound?
A: 30.9 µM

Q: And the GI50 [10]?
A: 2.91 µM

Q: And the TGI [10]?
A: 13.0 µM

Q: And the CC50 ([10]; read-out: LC50)?
A: > 100 µM

Q: And the GI50 [11]?
A: 4.34 µM

Q: And the TGI [11]?
A: 16.2 µM

Q: And the CC50 ([11]; read-out: LC50)?
A: 50.7 µM

Q: And the CC50 [12]?
A: > 100 µM

Q: What about the GI50 [13] of the same compound?
A: 2.01 µM

Q: And the TGI [13]?
A: 3.96 µM

Q: What about the CC50 ([13]; read-out: LC50) of the same compound?
A: 7.81 µM

Q: What about the GI50 [14] of the same compound?
A: 1.6 µM

Q: And the TGI [14]?
A: 5.73 µM

Q: And the CC50 ([14]; read-out: LC50)?
A: > 100 µM

Q: What about the GI50 [15] of the same compound?
A: 3.79 µM

Q: What about the TGI [15] of the same compound?
A: 15.6 µM

Q: What about the CC50 ([15]; read-out: LC50) of the same compound?
A: 49.4 µM

Q: And the GI50 [16]?
A: 0.46 µM

Q: What about the TGI [16] of the same compound?
A: 1.85 µM

Q: What about the CC50 ([16]; read-out: LC50) of the same compound?
A: 5.82 µM

Q: What about the GI50 [17] of the same compound?
A: 0.39 µM

Q: What about the TGI [17] of the same compound?
A: 1.93 µM

Q: And the CC50 ([17]; read-out: LC50)?
A: 6.2 µM

Q: What about the GI50 [18] of the same compound?
A: 0.38 µM

Q: What about the TGI [18] of the same compound?
A: 2.30 µM

Q: What about the CC50 ([18]; read-out: LC50) of the same compound?
A: > 100 µM

Q: What about the GI50 [19] of the same compound?
A: 3.19 µM

Q: And the TGI [19]?
A: 12.2 µM

Q: What about the CC50 ([19]; read-out: LC50) of the same compound?
A: 37 µM

Q: And the GI50 [20]?
A: 1.48 µM

Q: What about the TGI [20] of the same compound?
A: 9.29 µM

Q: And the CC50 ([20]; read-out: LC50)?
A: > 100 µM

Q: And the GI50 [21]?
A: 1.51 µM

Q: And the TGI [21]?
A: 3.32 µM

Q: What about the CC50 ([21]; read-out: LC50) of the same compound?
A: 7.3 µM

Q: And the GI50 [22]?
A: 14.9 µM

Q: And the TGI [22]?
A: 32.7 µM

Q: And the CC50 ([22]; read-out: LC50)?
A: 71.7 µM

Q: What about the GI50 [23] of the same compound?
A: 16.1 µM

Q: And the TGI [23]?
A: 33.1 µM

Q: What about the CC50 ([23]; read-out: LC50) of the same compound?
A: 68.1 µM

Q: And the GI50 [24]?
A: 2.72 µM

Q: And the TGI [24]?
A: 15.2 µM

Q: What about the CC50 ([24]; read-out: LC50) of the same compound?
A: 41.9 µM
